Test results as given in ChEMBL document CHEMBL5137032, “Design, synthesis of DNA-interactive 4-thiazolidinone-based indolo-/pyrroloazepinone conjugates as potential cytotoxic and topoisomerase I inhibitors” (Eur J Med Chem, 2022).
Calls of active or inactive are those of the source. No cut-off for these calls is given here.

Assays:
A549 = test: Cytotoxicity against human A549 cells assessed as cell growth inhibition incubated for 48 hrs by MTT assay; type: functional, cell-based; settings: A549, 48 h
HCT-116 = test: Cytotoxicity against human HCT-116 cells assessed as cell growth inhibition incubated for 48 hrs by MTT assay; type: functional, cell-based; settings: HCT-116, 48 h
SK-MEL-28 [1] = test: Cytotoxicity against human SK-MEL-28 cells assessed as cell growth inhibition incubated for 48 hrs by MTT assay; type: functional, cell-based; settings: SK-MEL-28, 48 h
HT-29 = test: Cytotoxicity against human HT-29 cells assessed as cell growth inhibition incubated for 48 hrs by MTT assay; type: functional, cell-based; settings: HT-29, 48 h
MCF7 = test: Cytotoxicity against human MCF7 cells assessed as cell growth inhibition incubated for 48 hrs by MTT assay; type: functional, cell-based; settings: MCF7, 48 h
[2] = Cytotoxicity against rat NRK cells assessed as cell growth inhibition incubated for 48 hrs by MTT assay; type: toxicity, cell-based
SK-MEL-28 [3] = test: Induction of apoptosis in human SK-MEL-28 cells assessed as nuclear fragmentation at 2.08 to 8.32 uM incubated for 48 hrs by DAPI staining based fluorescence microscopic analysis; type: functional, cell-based; settings: dose 2.08-8.32 µM
SK-MEL-28 [4] = test: Induction of apoptosis in human SK-MEL-28 cells assessed as changes in nuclear morphology at 2.08 to 8.32 uM incubated for 48 hrs by DAPI staining based fluorescence microscopic analysis; type: functional, cell-based; settings: dose 2.08-8.32 µM
SK-MEL-28 [5] = test: Induction of apoptosis in human SK-MEL-28 cells assessed as changes in cell morphology at 2.08 to 8.32 uM incubated for 48 hrs by phase contrast microscopy; type: functional, cell-based; settings: dose 2.08-8.32 µM
SK-MEL-28 [6] = test: Induction of apoptosis in human SK-MEL-28 cells assessed as cell shrinkage at 2.08 to 8.32 uM incubated for 48 hrs by phase contrast microscopy; type: functional, cell-based; settings: dose 2.08-8.32 µM, DDE = dose-dependent effect
SK-MEL-28 [7] = test: Induction of apoptosis in human SK-MEL-28 cells assessed as cell membrane disruption at 2.08 to 8.32 uM incubated for 48 hrs by phase contrast microscopy; type: functional, cell-based; settings: dose 2.08-8.32 µM, DDE = dose-dependent effect
SK-MEL-28 [8] = test: Induction of apoptosis in human SK-MEL-28 cells assessed as reduction on viable cells at 2.08 to 8.32 uM incubated for 48 hrs by phase contrast microscopy; type: functional, cell-based; settings: dose 2.08-8.32 µM, DDE = dose-dependent effect
SK-MEL-28 [9] = test: Induction of apoptosis in human SK-MEL-28 cells assessed as chromatin condensation at 2.08 to 8.32 uM incubated for 48 hrs by DAPI staining based fluorescence microscopic analysis; type: functional, cell-based; settings: dose 2.08-8.32 µM
SK-MEL-28 [10] = test: Induction of apoptosis in human SK-MEL-28 cells assessed as cell shrinkage at 2.08 to 8.32 uM incubated for 48 hrs by AO/EB staining based fluorescence microscopy; type: functional; settings: dose 2.08-8.32 µM, DDE = dose-dependent effect
SK-MEL-28 [11] = test: Induction of apoptosis in human SK-MEL-28 cells assessed as apoptotic body fragmentation at 2.08 to 8.32 uM incubated for 48 hrs by AO/EB staining based fluorescence microscopy; type: functional, cell-based; settings: dose 2.08-8.32 µM, DDE = dose-dependent effect
SK-MEL-28 [12] = test: Induction of apoptosis in human SK-MEL-28 cells assessed as membrane blebbing at 2.08 to 8.32 uM incubated for 48 hrs by AO/EB staining based fluorescence microscopy; type: functional, cell-based; settings: dose 2.08-8.32 µM, DDE = dose-dependent effect
SK-MEL-28 [13] = test: Induction of apoptosis in human SK-MEL-28 cells assessed as chromatin condensation at 2.08 to 8.32 uM incubated for 48 hrs by AO/EB staining based fluorescence microscopy; type: functional, cell-based; settings: dose 2.08-8.32 µM, DDE = dose-dependent effect
SK-MEL-28 [14] = test: Induction of intracellular ROS generation in human SK-MEL-28 cells at 2.08 to 8.32 uM incubated for 48 hrs by […] fluorescence microscopic analysis; type: functional, cell-based; settings: dose 2.08-8.32 µM, DDE = dose-dependent effect
SK-MEL-28 [15] = test: Anti-migration activity in human SK-MEL-28 cells assessed as distance travelled at 2.08 uM by wound healing assay based phase contrast microscopy; type: functional
SK-MEL-28 [16] = test: Anti-migration activity in human SK-MEL-28 cells assessed as distance travelled at 4.16 uM by wound healing assay based phase contrast microscopy; type: functional
SK-MEL-28 [17] = test: Anti-migration activity in human SK-MEL-28 cells assessed as distance travelled at 8.32 uM by wound healing assay based phase contrast microscopy; type: functional
SK-MEL-28 [18] = test: Anti-migration activity in human SK-MEL-28 cells assessed as distance travelled at 2.08 uM incubated for 48 hrs by wound healing assay based phase contrast microscopy; type: functional
SK-MEL-28 [19] = test: Anti-migration activity in human SK-MEL-28 cells assessed as distance travelled at 4.16 uM incubated for 48 hrs by wound healing assay based phase contrast microscopy; type: functional
SK-MEL-28 [20] = test: Anti-migration activity in human SK-MEL-28 cells assessed as distance travelled at 8.32 uM incubated for 48 hrs by wound healing assay based phase contrast microscopy; type: functional
SK-MEL-28 [21] = test: Inhibition of cell migration in human SK-MEL-28 cells at 2.08 to 8.32 uM incubated for 48 hrs by wound healing assay based phase contrast microscopy; type: functional; settings: dose 2.08-8.32 µM, DDE = dose-dependent effect
SK-MEL-28 [22] = test: Inhibition of colony formation in human SK-MEL-28 cells assessed as decrease in colonies at 2.08 to 8.32 uM incubated for 7 days by crystal violet staining based assay; type: functional, cell-based; settings: dose 2.08-8.32 µM, time 7.0 day, DDE = dose-dependent effect
SK-MEL-28 [23] = test: Induction of apoptosis in human SK-MEL-28 cells assessed as necrotic cells at 2.08 to 8.32 uM incubated for 48 hrs by Annexin V-FITC/propidium iodide staining based flow cytometric analysis; type: functional; settings: dose 2.08-8.32 µM
SK-MEL-28 [24] = test: Induction of apoptosis in human SK-MEL-28 cells assessed as late apoptotic cells measured upto 4.16 uM incubated for 48 hrs by Annexin V-FITC/propidium iodide staining based flow cytometric analysis; type: functional, cell-based
Calf thymus DNA [25] = test: Binding affinity to calf thymus DNA assessed as hyperchromicity at 10 to 20 uM by UV-Vis spectroscopic analysis; type: nucleic-acid assay; settings: Bos taurus; dose 10-20 µM
Calf thymus DNA [26] = test: Binding affinity to calf thymus DNA assessed as hyperchromicity at 10 uM by circular dichroism spectroscopy; type: nucleic-acid assay; settings: Bos taurus
Calf thymus DNA [27] = test: Binding affinity to calf thymus DNA assessed as decrease in viscosity at 15 uM by ethidium bromide-Hoechst 33342 staining based analysis; type: nucleic-acid assay; settings: Bos taurus
[28] = biological target: T1, DNA topoisomerase 1 (Homo sapiens) (UniProt P11387); test: Inhibition of DNA topoisomerase 1 (unknown origin) assessed as reduction in pBR322 DNA relaxation at 10 uM incubated for 30 mins measured by agarose gel electrophoresis method relative to control
T1 sequence (whole entry): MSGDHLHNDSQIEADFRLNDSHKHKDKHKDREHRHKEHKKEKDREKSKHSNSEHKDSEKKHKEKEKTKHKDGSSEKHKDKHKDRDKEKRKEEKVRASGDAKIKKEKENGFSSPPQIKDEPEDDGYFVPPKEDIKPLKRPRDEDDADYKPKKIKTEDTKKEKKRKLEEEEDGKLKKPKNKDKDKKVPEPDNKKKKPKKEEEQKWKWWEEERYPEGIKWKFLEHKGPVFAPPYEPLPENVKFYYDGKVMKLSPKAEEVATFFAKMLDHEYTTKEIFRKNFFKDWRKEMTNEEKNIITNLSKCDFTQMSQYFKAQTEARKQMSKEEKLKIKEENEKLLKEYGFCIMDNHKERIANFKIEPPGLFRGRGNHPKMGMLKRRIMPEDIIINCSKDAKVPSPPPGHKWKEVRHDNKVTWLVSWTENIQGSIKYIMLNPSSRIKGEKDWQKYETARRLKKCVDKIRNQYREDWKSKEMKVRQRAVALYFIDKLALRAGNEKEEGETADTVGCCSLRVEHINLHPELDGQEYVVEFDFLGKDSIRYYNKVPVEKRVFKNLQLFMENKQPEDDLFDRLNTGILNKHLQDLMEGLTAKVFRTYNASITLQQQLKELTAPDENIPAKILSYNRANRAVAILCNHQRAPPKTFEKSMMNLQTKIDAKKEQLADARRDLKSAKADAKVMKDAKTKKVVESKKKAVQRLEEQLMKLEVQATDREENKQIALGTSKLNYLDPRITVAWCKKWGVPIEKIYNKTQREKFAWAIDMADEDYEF

DNA topoisomerase 1 = biological target: T2, DNA topoisomerase 1 (Homo sapiens, UniProt P11387); test: Inhibition of human DNA topoisomerase 1 assessed as reduction in pBR322 DNA relaxation incubated for 1 hrs measured by agarose gel electrophoresis method
T2 sequence (P11387 whole entry): T1 sequence (whole entry)

[29] = biological target: DNA topoisomerase 2-alpha (Homo sapiens) (UniProt P11388); test: Inhibition of DNA topoisomerase 2 (unknown origin) assessed as reduction in decatenation using kDNA as substrate incubated for 30 mins measured by agarose gel electrophoresis method
DNA topoisomerase 2-alpha (Homo sapiens), sequence (P11388 whole entry): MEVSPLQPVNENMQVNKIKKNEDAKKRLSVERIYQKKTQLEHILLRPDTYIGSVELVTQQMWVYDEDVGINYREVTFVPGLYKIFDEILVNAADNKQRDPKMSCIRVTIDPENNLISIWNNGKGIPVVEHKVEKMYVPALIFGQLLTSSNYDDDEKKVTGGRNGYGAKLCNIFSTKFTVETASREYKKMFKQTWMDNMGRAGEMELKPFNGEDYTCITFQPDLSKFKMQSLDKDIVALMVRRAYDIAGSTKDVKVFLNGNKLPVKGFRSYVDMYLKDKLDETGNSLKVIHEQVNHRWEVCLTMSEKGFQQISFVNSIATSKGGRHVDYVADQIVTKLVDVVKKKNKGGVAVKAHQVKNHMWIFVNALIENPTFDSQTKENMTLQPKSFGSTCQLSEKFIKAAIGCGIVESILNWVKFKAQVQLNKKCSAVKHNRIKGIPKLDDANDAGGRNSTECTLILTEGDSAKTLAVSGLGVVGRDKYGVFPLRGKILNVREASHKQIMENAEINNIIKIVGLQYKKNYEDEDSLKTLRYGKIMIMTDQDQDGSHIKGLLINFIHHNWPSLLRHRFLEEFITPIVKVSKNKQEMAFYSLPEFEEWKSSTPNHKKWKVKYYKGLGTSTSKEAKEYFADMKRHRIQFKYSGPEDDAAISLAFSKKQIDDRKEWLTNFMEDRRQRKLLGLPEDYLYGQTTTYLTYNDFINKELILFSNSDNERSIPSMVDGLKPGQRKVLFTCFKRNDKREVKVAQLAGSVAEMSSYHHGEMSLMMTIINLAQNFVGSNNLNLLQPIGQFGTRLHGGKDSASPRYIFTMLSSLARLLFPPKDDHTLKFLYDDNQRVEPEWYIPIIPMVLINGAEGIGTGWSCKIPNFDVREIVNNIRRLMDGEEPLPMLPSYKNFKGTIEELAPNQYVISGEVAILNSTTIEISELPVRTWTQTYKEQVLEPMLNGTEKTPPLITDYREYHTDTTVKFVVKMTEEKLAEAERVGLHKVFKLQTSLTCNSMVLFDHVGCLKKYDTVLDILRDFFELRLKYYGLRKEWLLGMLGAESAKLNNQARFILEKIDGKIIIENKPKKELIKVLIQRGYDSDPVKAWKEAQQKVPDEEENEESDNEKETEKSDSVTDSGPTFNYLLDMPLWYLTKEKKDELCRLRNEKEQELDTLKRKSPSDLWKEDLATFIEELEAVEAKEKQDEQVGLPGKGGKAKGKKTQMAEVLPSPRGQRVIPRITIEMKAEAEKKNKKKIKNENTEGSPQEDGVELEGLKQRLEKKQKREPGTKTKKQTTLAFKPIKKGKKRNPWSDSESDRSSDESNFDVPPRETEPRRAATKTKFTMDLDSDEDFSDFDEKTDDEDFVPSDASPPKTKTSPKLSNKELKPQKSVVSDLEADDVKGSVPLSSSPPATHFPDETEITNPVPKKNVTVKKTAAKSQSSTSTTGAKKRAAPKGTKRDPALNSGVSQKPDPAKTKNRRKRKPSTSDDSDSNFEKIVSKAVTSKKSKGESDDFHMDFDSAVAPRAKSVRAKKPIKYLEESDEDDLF

Cc1ccc(C/N=C2\NC(=O)/C(=C3\CCNC(=O)c4[nH]ccc43)S2)cc1
IC50 (A549): 9.08 µM
IC50 (HCT-116): 4.76 µM
IC50 (SK-MEL-28 [1]): 4.15 µM
IC50 (HT-29): 6.83 µM
IC50 (MCF7): 8.15 µM
IC50 at 48 h [2]: 41.9 µM
Activity (SK-MEL-28 [3]): Active
Activity (SK-MEL-28 [4]): Active
Activity (SK-MEL-28 [5]): Active
Activity (SK-MEL-28 [6]): Dde
Activity (SK-MEL-28 [7]): Dde
Activity (SK-MEL-28 [8]): Dde
Activity (SK-MEL-28 [9]): Active
Activity (SK-MEL-28 [10]): Dde
Activity (SK-MEL-28 [11]): Dde
Activity (SK-MEL-28 [12]): Dde
Activity (SK-MEL-28 [13]): Dde
Activity (SK-MEL-28 [14]): Dde
Activity (SK-MEL-28 [15]): 670 um
Activity (SK-MEL-28 [16]): 736.33 um
Activity (SK-MEL-28 [17]): 798.09 um
Activity (SK-MEL-28 [18]): 434.44 um
Activity (SK-MEL-28 [19]): 568.42 um
Activity (SK-MEL-28 [20]): 573.08 um
inhibition (SK-MEL-28 [21]): Dde
inhibition (SK-MEL-28 [22]): Dde
Activity (SK-MEL-28 [23]): 4.84%
Activity (SK-MEL-28 [24]): Active
Activity (Calf thymus DNA [25]): Active
Activity (Calf thymus DNA [26]): Active
Activity (Calf thymus DNA [27]): Active
inhibition [28]: 17%
IC50 (DNA topoisomerase 1): 34 µM
inhibition [29]: Active
